Values after ≈ are worked out from the molar mass of the structure shown. Where two headings read alike, the source gives them in different places.

Data set [1] has as its system macrophage J774 cells line. The data set can be described thus: Cytotoxicity assay (MTT) in macrophage J774 cells. Type of data set: cell-based. The conditions noted are these: J774 cells, 24 hrs, MTT. As to the method: The study was carried out using macrophage J774 cells line (ATCC-USA). Cells were grown in Rosewell Park Memorial Institute Medium (RPMI) containing 10% fetal calf serum (FCS) and supplemented with 75 mg/liter penicillin, 100 mg/liter streptomycin, 110 mg/liter Sodium pyruvate, 2.38 gm/liter HEPES, 0.05 mM 2 β-mercaptoethanol, and 2 gm/liter NaHCO3, in a humidified atmosphere in 5% CO2 at 37° C., and were sub-cultured at 1:4 ratio once a week.
Cells were plated at a density of 3×10^4 cells/cm^2 and maintained in culture medium for 12 hours. Cells were seeded onto 96-well flat bottom plates and FCS was reduced to 5% for the experiment. Stock solutions of compounds IA1 to IIC10 were prepared fresh to avoid oxidation. Cells were incubated with the compounds (40 μg/ml) for 24 hrs.
After the completion of incubation, the medium was removed and cell viability was evaluated by assaying for the ability of functional mitochondria to catalyze the reduction of 3-(4,5-dimethylthiazol-2-yl)-2,5-diphenyltetrazolium bromide (MTT) to form formazan salt by mitochondrial dehydrogenases, and determined by Elisa reader at 450 nm (Multiskan Spectrum; Thermo Electron Corporation, USA). Percentage cytotoxicity was calculated with respect to the untreated cells.

Data set [2] concerns M. tuberculosis H37Rv (ATCC 27294). Briefly: MIC by broth dilution method, M. tuberculosis H37Rv. Type of data set: cell-based. To be noted: Mycobacterium tuberculosis, 504 h.
Where [3] appears, read: broth dilution, 3 weeks, read-out: MIC M. tb H37Rv.

In data set [1], `C[C@]1(COc2cccc(-n3cc(-c4ccc(OC(F)(F)F)cc4)nn3)c2)Cn2cc([N+](=O)[O-])nc2O1` [IA19, (R)-2-{3-[4-(4-trifluoromethoxyphenyl)-1H-1,2,3-triazol-1-yl]phenoxymethyl}-2,3-dihydro-2-methyl-6-nitroimidazo[2,1-b]oxazole] registered a Cytotoxicity of over 40 µg/mL. Also, the MIC (in general, the least concentration at which growth counts as inhibited) in data set [2] (setting [3]) is 4 µg/mL (≈ 7.96 µM).
As to `C[C@]1(COc2ccc(-n3nnnc3Oc3ccc(F)cc3)cc2)Cn2cc([N+](=O)[O-])nc2O1` [IB7, (R)-2-{4-[5-(4-fluorophenoxy)-1H-tetrazol-1-yl]phenoxymethyl}-2,3-dihydro-2-methyl-6-nitroimidazo[2,1-b]oxazole], the Cytotoxicity in data set [1] was over 40 µg/mL. The MIC was 2 µg/mL (≈ 4.41 µM) in data set [2] (setting [3]); 1 to 4 µg/mL (≈ 2.21 to 8.82 µM) in data set [2] (text summary: sensitive H37Rv as well as MDR and XDR strains of M. tuberculosis, read-out: MIC value).
`C[C@]1(COc2cccc(-n3cc(COc4ccc(C(F)(F)F)cc4)nn3)c2)Cn2cc([N+](=O)[O-])nc2O1` [IA35]: the Cytotoxicity in data set [1] is over 40 µg/mL. Also, the MIC in data set [2] (setting [3]) amounted to 2 µg/mL (≈ 3.87 µM).
For `COc1ccc(NC(=S)Nc2ccc(OC[C@@]3(C)Cn4cc([N+](=O)[O-])nc4O3)cc2)cc1` [IIA7, (R)-1-(4-methoxyphenyl)-3-{4-(2-methyl-6-nitro-2,3-dihydroimidazo[2,1-b]oxazol-2-yl)methoxyphenyl}thiourea] the same measures were over 40 µg/mL and 2 µg/mL (≈ 4.39 µM).
`CN(c1ccc(C(F)(F)F)cc1)S(=O)(=O)c1ccc(OC[C@@]2(C)Cn3cc([N+](=O)[O-])nc3O2)cc1` [IIB6, (R)—N-methyl-4-{(2-methyl-6-nitro-2,3-dihydroimidazo[2,1-b]oxazol-2-yl)methoxy}-N-(p-trifluoromethylphenyl)benzenesulfonamide] yielded a Cytotoxicity in data set [1] of over 40 µg/mL. Besides, the minimum inhibitory concentration (MIC) in data set [2] (setting [3]) stood at 1 µg/mL (≈ 1.95 µM).
As to `C[C@]1(COc2ccc(-n3cc(-c4ccccc4F)nn3)cc2)Cn2cc([N+](=O)[O-])nc2O1` [IA4, (R)-2-{4-[4-(2-fluorophenyl)-1H-1,2,3-triazol-1-yl]phenoxymethyl}-2,3-dihydro-2-methyl-6-nitroimidazo[2,1-b]oxazole], the Cytotoxicity in data set [1] was over 40 µg/mL. For the same compound, the MIC in data set [2] (setting [3]) was found to be 1 µg/mL (≈ 2.29 µM).
`C[C@]1(COc2ccccc2-n2cc(-c3ccc(C(F)(F)F)cc3)nn2)Cn2cc([N+](=O)[O-])nc2O1` [IA22, (R)-2-{2-[4-(4-trifluoromethylphenyl)-1H-1,2,3-triazol-1-yl]phenoxymethyl}-2,3-dihydro-2-methyl-6-nitroimidazo[2,1-b]oxazole] came in with a Cytotoxicity in data set [1] of over 40 µg/mL. The MIC in data set [2] (setting [3]) is 4 µg/mL (≈ 8.22 µM).
The corresponding values for `CN(c1ccccc1)S(=O)(=O)c1ccc(OC[C@@]2(C)Cn3cc([N+](=O)[O-])nc3O2)cc1` [IIB4, (R)—N-methyl-4-{(2-methyl-6-nitro-2,3-dihydroimidazo[2,1-b]oxazol-2-yl)methoxy}-N-phenylbenzenesulfonamide] are over 40 µg/mL and 4 µg/mL (≈ 9 µM).
In data set [1], `Cc1ccc(-c2cn(-c3ccc(OC[C@@]4(C)Cn5cc([N+](=O)[O-])nc5O4)cc3)nn2)cc1` [IA8, (R)-2-{4-[4-(4-methylphenyl)-1H-1,2,3-triazol-1-yl]phenoxymethyl}-2,3-dihydro-2-methyl-6-nitroimidazo[2,1-b]oxazole] had a Cytotoxicity of over 40 µg/mL. Moreover, the MIC in data set [2] (setting [3]) was 1 µg/mL (≈ 2.31 µM).
In data set [1], `C[C@]1(COc2ccc(NC(=S)Nc3ccc(OC(F)(F)F)cc3)cc2)Cn2cc([N+](=O)[O-])nc2O1` [IIA8, (R)-1-(4-trifluoromethoxyphenyl)-3-{4-(2-methyl-6-nitro-2,3-dihydroimidazo[2,1-b]oxazol-2-yl)methoxyphenyl}thiourea] returned a Cytotoxicity of over 40 µg/mL. In addition, the MIC in data set [2] (setting [3]) amounted to 2 µg/mL (≈ 3.93 µM).
For `C[C@]1(COc2cccc(-n3cc(COc4ccccc4F)nn3)c2)Cn2cc([N+](=O)[O-])nc2O1` [IA36] the same measures were over 40 µg/mL and 2 µg/mL (≈ 4.29 µM).
